Measurements from patent US11964980B2, “Crystalline forms of (S)-1-(4-fluorophenyl)-1-(2-(4-(6-(1-methyl-1H-pyrazol-4-yl)pyrrolo[2,1- f][1,2,4]triazin-4-yl)piperazinyl)-pyrimidin-5-yl)ethan-1-amine and methods of making” (Blueprint Medicines Corporation, priority 2019, dated 2024).

System: tyrosine kinase inhibitor (TKI)-resistant mastocytoma model
Test: TKI-resistant mastocytoma model in vivo

SMILES: Cn1cc(-c2cc3c(N4CCN(c5ncc([C@@](C)(N)c6ccc(F)cc6)cn5)CC4)ncnn3c2)cn1 [Compound (I), (S)-1-(4-fluorophenyl)-1-(2-(4-(6-(1-methyl-1H-pyrazol-4-yl)pyrrolo[2,1-f][1,2,4]triazin-4-yl)piperazin-1-yl)pyrimidin-5-yl)ethan-1-amine]
- Growth inhibition in TKI-resistant mastocytoma model: robust growth inhibition
